The record followed here is patent US12440479B2, “Prevention or treatment of chronic organ injury” (GEORG-AUGUST-UNIVERSITAET GOETTINGEN, STIFTUNG …, priority 2018, dated 2025).

One data set relates to ARNT/HIF1β homodimer. Briefly: ARNT/HIF1β homodimer formation upon PP1/PP2A inhibition. The conditions noted are these: for ARNT/HIF1β homodimer formation: Okadaic acid: PP1/PP2A inhibition, Tautomycin: PP1, LB-100: PP2A. The text has this:
Based on previous reports that combined inhibition of PP1/PP2A with Okadaic acid is capable to induce ARNT/HIF1β homodimer formation and transactivation activity by directly blocking ARNT dephosphorylation (163), the inventors first confirmed enhanced […] homodimer formation upon PP1/PP2A inhibition (FIG. 57A). […] See also FIG. 58.

A further data set deals with UUO-challenged kidneys. Briefly: Unilateral ureteral obstruction (UUO): tubular injury and interstitial fibrosis (histology, immunostaining). The data set is classed as in vivo, mice. Particulars: UUO; for tubular injury and tubulointerstitial fibrosis: VMO 12.5 mg/kg intraperitoneally or FK506 0.2 mg/kg orally per day; for effect of FK506 on ALK3 expression or reno-protection: VMO added to FK506.

The subject of data set [1] is intrarenal ARNT/ALK3 signaling. Briefly: UUO kidneys: ARNT/ALK3 expression and pSmad1/5/8 (qRT-PCR, immunoblotting, immunostaining). Particulars: for intrarenal ARNT, ALK3 and nuclear pSmad1/5/8 immunostaining: UUO, VMO 12.5 mg/kg intraperitoneally or FK506 0.2 mg/kg orally per day. Type of data set: in vivo, mice. On the procedure:
Eight to twelve weeks-old C57/6, yGTcre−;Yy1fl/fl and yGTcre+;Yy1fl/fl mice were anesthetized with isoflurane inhalation (2-3%), analgesia was performed by subcutaneous injection of 0.1 mg/kg body weight per day Buprenorphine. The ureter was separated from the surrounding tissues and two ligatures were placed about 5 mm apart in upper two-thirds of the left ureter to obtain reliable obstruction. Mice were sacrificed 3, 7 or 10 days after ureteral obstruction for further analyses, as described before (53, 153-155).
Paraffin-embedded specimens were deparaffinized in xylene and rehydrated in ethanol containing distilled water. Tissue sections were stained using polyclonal antibodies against ALK3 (sc-20736, Santa Cruz Biotechnology, Dallas, USA) and ARNT (3718S, Cell Signaling, Danvers, USA), peroxidase labeling was performed using Vectastain Universal Elite ABC Kit (Vector Laboratories, Burlingame, USA) according to the manufacturer's protocol. AEC Substrate-Chromogen (Dako, Glostrup, Denmark) was applied for peroxidase visualization according to the manufacturer's protocol. Nuclear counterstain was performed by using Mayer's Hematoxylin Solution (Sigma, St. Louis, USA).
(§1) For immunofluorescent staining, primary antibodies against ARNT (5537S, Cell Signaling, Danvers, USA), Hif1α (H6535, Sigma, St. Louis, USA), Hif2α (ab20654, Abcam Biochemicals, Cambridge, UK), phosphorylated Smad1/5/8 (pSmad1/5/8, sc-12353, Santa Cruz Biotechnology, Dallas, USA), CD45 (550539, BD Biosciences, Franklin Lakes, USA), Collagen-1 (ab34710, Abcam Biochemicals, Cambridge, UK), α-smooth muscle actin (aSMA, A5228, Sigma, St. Louis, USA), FKBP12 (ab2918, Abcam Biochemicals, Cambridge, UK) and YY1 (ab12132, Abcam Biochemicals, Cambridge, UK) were used, secondary antibodies were labeled with Alexa Fluor 488 or 568 (Life Technologies, Carlsbad, USA). Renal basement membranes were stained with antibodies against Collagen-4 (1340-30, SouthernBiotech, Birmingham, USA), cardiac cell membranes with antibodies against WGA (W11261, Life Technologies, Carlsbad, USA). Nuclear staining was performed using 4′,6-diamidino-2-phenylindole (DAPI, Vector Laboratories, Burlingame, USA). Relative areas positive for Collagen-1, aSMA, tubular nuclei positive for ARNT and pSmad1/5/8 were quantified in 10 high power fields per section at 400× magnification.
For SYBR-based real-time PCR, cDNA synthesis was performed by using DNase I digestion (Invitrogen, Carlsbad, USA) and SuperScript II Reverse Transcriptase (Invitrogen, Carlsbad, USA) according to the manufacturer's protocol. 1 μL of reverse-transcribed cDNA was added to the reaction mixture containing the primer pair (200 nmol/L each) and diluted 2× Fast SYBR Green Master Mix (Applied Biosystems, Carlsbad, USA) in a final volume of 20 μL for each PCR reaction. The real-time PCR reactions were performed in a 96-well reaction plate using the StepOne Plus Real-Time System (Applied Biosystems, Carlsbad, USA) and were done in triplicates. An initiation step at 95° C. for 20 seconds was followed by 40 cycles at 95° C. for 3 to seconds and 60° C. for 30 seconds, with one cycle of dissociation at 95° C. for 15 seconds, 60° C. for 60 seconds, and 95° C. for 15 seconds. The intercalation of SYBR Green dye and its fluorescent signal is directly proportional to the amount of amplified DNA and was transformed into the cycle threshold (Ct). For normalization, the Ct values of the housekeeping genes Gapdh and Actb were subtracted from the Ct values of the gene of interest to generate the dCt values. The relative expression levels were calculated using the equation 2^−ddCt.
Tissue and cells were homogenized in NP40 lysis buffer (Life technologies, Carlsbad, USA) supplemented with protease inhibitor cocktail (Roche, Basel, Switzerland).
(Real-time PCR tracks product formation cycle by cycle.)

In the next data set the test system is FKBP12, YY1, ARNT. Briefly: In vivo-morpholino knockdown: intrarenal protein levels (immunostaining, immunoblotting). The conditions noted are these: UUO mice, VMO 12.5 mg/kg intraperitoneally, vs control-VMO. On the procedure: Mice were injected intraperitoneally with 12.5 mg/kg body weight in vivo-morpholinos (Gene Tools, Philomath, USA) in saline at a final volume of 100 μL every other day starting two days prior of surgery (114), sequence alignments were performed using NCBI Nucleotide Blast and are listed in Tables 3-5 (157). A control in vivo-morpholino that targets a human β-globin intron mutation was used as standard control (116).
as §1
Tissue and cells were homogenized in NP40 lysis buffer (Life technologies, Carlsbad, USA) supplemented with protease inhibitor cocktail (Roche, Basel, Switzerland). […] Luminescence was detected by using chemiluminescent substrate (Cell Signaling, Danvers, USA) on a ChemiDoc XRS system (Bio-Rad, Hercules, USA). […]

Another data set concerns parenchymal organs. The conditions noted are these: LB-100 2 mg/kg in combination with FK506 0.2 mg/kg s.c. or GPI-1046 10 mg/kg s.c.
Setting [2] is: FK506 0.02-5.0 mg/kg or CsA 10 mg/kg orally per day starting one day prior to UUO.

Experimental for parenchymal organs: Mice were injected intraperitoneally with 2 mg/kg body weight LB-100 (LDN, Sigma, St. Louis, USA) every alternate day starting at the day of surgery, control mice received equivalent volume of vehicle buffer.

In the case of `C=C1[C@@H](O)[C@@H]2O[C@]3(CC[C@H](/C=C/[C@@H](C)[C@@H]4CC(C)=C[C@@]5(O[C@H](C[C@@](C)(O)C(=O)O)CC[C@H]5O)O4)O3)CC[C@H]2O[C@@H]1[C@@H](O)C[C@H](C)[C@H]1O[C@@]2(CCCCO2)CC[C@H]1C` [Okadaic acid], the ARNT/HIF1β homodimer formation result with ARNT/HIF1β homodimer is on record as “enhanced”.

Turning to Cyclosporine A [CsA], in the data set on UUO-challenged kidneys (setting [2]), the chronic tubular injury entry is listed as “failed to attenuate” and the interstitial fibrosis result is reported as “failed to attenuate”. Further, the “expression of ALK3” value in data set [1] (UUO-challenged murine kidneys, treatment starting one day prior) is given as “failed to induce”.

In the case of “Yy1-VMO: in vivo-morpholinos targeting translational start site of Yy1 (SEQ ID NO: 10) (antisense TGTAGAGGGTGTCGCCCGAGGCCAT; all phosphorodiamidate morpholino (PMO); in vivo-morpholino, delivery moiety not given here, further chemistry not fully specified)”, in the data set with UUO-challenged kidneys, the “tubular injury and tubulointerstitial fibrosis” value is reported as “attenuated”; the “effect of FK506 on ALK3 expression or reno-protection” value is on record as “did not further enhance”. Besides, the “intrarenal protein levels of respective transcript” value (from here on “intrarenal protein levels”) in the data set on FKBP12, YY1, ARNT is “effectively reduced”. Further, the “intrarenal ARNT, ALK3 and nuclear pSmad1/5/8 immunostaining” value in data set [1] is on record as “equally induced”.

On to `CO[C@H]([C@H](O)CC(=O)[C@@H](C)[C@@H](O)CC[C@@H](C)[C@@H]1O[C@]2(CC[C@@H](C)[C@H](CC[C@H](C)C(C)=O)O2)CC[C@@H]1C)[C@H](OC(=O)C[C@@H](O)C1=C(C)C(=O)OC1=O)C(C)C` [Tautomycin], for which the ARNT/HIF1β homodimer formation result in the data set with ARNT/HIF1β homodimer was “did not affect”.

In the case of “Fkbp12-VMO: in vivo-morpholinos targeting translational start site of Fkbp12 (SEQ ID NO: 9) (antisense AGATGGTCTCCACCTGCACTCCCAT; all phosphorodiamidate morpholino (PMO); in vivo-morpholino, delivery moiety not given here, further chemistry not fully specified)”, in the data set on UUO-challenged kidneys, the “tubular injury and tubulointerstitial fibrosis” value is recorded as “attenuated”; the “effect of FK506 on ALK3 expression or reno-protection” value was “did not further enhance”. Besides, the “intrarenal protein levels” value with FKBP12, YY1, ARNT is recorded as “effectively reduced”. For the same compound, in data set [1], the “intrarenal ARNT, ALK3 and nuclear pSmad1/5/8 immunostaining” value is recorded as “equally induced”.

Consider “Arnt-VMO: in vivo-morpholinos targeting translational start site of Arnt (antisense AAGAGCCACTCCGCAGATTAGGCAC; all phosphorodiamidate morpholino (PMO); in vivo-morpholino, delivery moiety not given here, further chemistry not fully specified)”, for which the “intrarenal protein levels” value in the data set with FKBP12, YY1, ARNT is listed as “effectively reduced”.

With `CN1CCN(C(=O)C2C(C(=O)O)[C@H]3CC[C@@H]2O3)CC1` (stereo partly drawn) [LB-100], the “protection by FK506/GPI-1046” value with parenchymal organs is “enhances protection”. Also, in the data set with ARNT/HIF1β homodimer, the ARNT/HIF1β homodimer formation entry is “enhanced”. For the same compound, the “endogenous ARNT” value in the data set with ARNT/HIF1β homodimer (by protection from degradation) is “effectively increases”. Moreover, the “ARNT homodimer formation (mass spectrometry)” value with ARNT/HIF1β homodimer (in the presence of LB-100) is “enhancement”.
